Patent EP4700025A1, “AMIDE COMPOUND, PHARMACEUTICAL COMPOSITION COMPRISING SAME, AND USE THEREOF” (Suzhou Genhouse Bio Co., Ltd., priority 2023, dated 2024)
Read-outs that look alike come from different tables or passages of the source.

Experiments:
[1] = system: HCT-116; experiment: CCK8 proliferation inhibition, HCT-116; type: cell-based; details: Homo sapiens, 192 h, CCK8, 8 days after drug treatment
[2] = Pharmacokinetic assay in rats; type: in vivo, SD rats; details: rat; for AUC(0-inf) / AUC(0-t) / C0 / MRT inf / Vd / Cmax / Tmax: plasma; for MRT inf: read-out: MRT(0-∞); for Vd: read-out: Vz
Method: In this experimental example, the pharmacokinetic behavior of the test compounds after administration by intravenous injection (IV) and oral gavage (PO) in SD rats was tested.
On the day of administration, rats were weighed for actual body weight, and the administration volume was calculated. Each compound was tested in two groups with 3 rats in each group; one group was subjected to administration by single intravenous injection, and the other group was subjected to administration by single oral gavage. The whole blood samples were collected via the jugular vein at prescribed time points (0.25 h, 0.5 h, 1 h, 2 h, 4 h, 8 h, and 24 h after administration). After the blood sample collection, the samples were immediately transferred to labeled commercial sample tubes containing K2-EDTA (0.85-1.15 mg), followed by centrifugation (3200× g, 4 °C, 10 min) and plasma collection. The plasma was transferred to a pre-cooled centrifuge tube, frozen in dry ice, and then stored in an ultra-low temperature freezer at -60 °C or lower until the LC-MS/MS analysis was performed.
Plasma concentrations were determined by the LC-MS/MS method. Plasma drug concentration data for the compounds were processed using a non-compartmental model in the WinNonlin Version 6.3 (Pharsight, Mountain View, CA) pharmacokinetic software. The relevant pharmacokinetic parameters were calculated by a linear-log trapezoidal method.

[3] = system: HCT-116-MTAP^-/-; experiment: CCK8 proliferation inhibition, HCT-116-MTAP^-/-; type: cell-based; details: Homo sapiens, 192 h; HCT-116-MTAP^-/- (MTAP-deficient); CCK8, 8 days after drug treatment
[4] = system: SDMA; experiment: SDMA Inhibition Assay in A549 cells; type: cell-based; details: Homo sapiens, A549, 96 hours
[5] = system: A549; experiment: CCK8 proliferation inhibition, A549; type: cell-based; details: Homo sapiens, 192 h, CCK8, 8 days after drug treatment
[6] = molecular target: T1, CYP450 3A4 (Homo sapiens, UniProt P08684); experiment: Inhibition of human liver microsome CYP450 enzyme 3A4; type: in vitro ADME
T1 construct: from tissue; host or cells: human liver microsomes
T1 sequence (P08684 whole entry): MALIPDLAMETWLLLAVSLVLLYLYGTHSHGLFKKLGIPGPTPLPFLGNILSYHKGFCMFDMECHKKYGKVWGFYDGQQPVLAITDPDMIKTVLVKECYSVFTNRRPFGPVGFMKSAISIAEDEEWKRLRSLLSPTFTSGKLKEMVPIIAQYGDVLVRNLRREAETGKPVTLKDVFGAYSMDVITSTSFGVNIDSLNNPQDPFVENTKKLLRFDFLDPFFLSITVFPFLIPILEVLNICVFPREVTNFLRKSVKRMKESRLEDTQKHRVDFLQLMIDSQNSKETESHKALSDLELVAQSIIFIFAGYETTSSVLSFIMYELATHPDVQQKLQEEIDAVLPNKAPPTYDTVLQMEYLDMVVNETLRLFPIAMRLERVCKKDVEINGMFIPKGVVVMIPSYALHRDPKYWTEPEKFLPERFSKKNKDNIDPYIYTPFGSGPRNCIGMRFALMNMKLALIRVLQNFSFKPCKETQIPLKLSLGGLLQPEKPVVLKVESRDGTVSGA
Method: 100 mM K-Buffer: 9.5 mL of stock solution A was mixed with 40.5 mL of stock solution B, the total volume was adjusted to 500 mL with ultrapure water, and the buffer was titrated to pH 7.4 with KOH or H3PO4. • Starting material A (1 M potassium dihydrogen phosphate): 136.5 g of potassium dihydrogen phosphate in 1 L of water; • Stock solution B ([…]): 174.2 g of potassium dihydrogen phosphate in 1 L of water.
The test substance powder was prepared into a stock solution at a certain concentration with DMSO or another organic solvent, which was then further diluted with a suitable organic solvent.
The liver microsomal in vitro incubation system for the CYP450 enzyme metabolism phenotype study was a biochemical reaction of the prepared liver microsomes supplemented with a redox coenzyme and an enzyme-specific selective inhibitor under simulated physiological temperature and physiological environment conditions.
The concentration of the parent drug or a metabolite thereof in the incubation solution was determined by LC-MS/MS. and the IC50 value was calculated.

[7] = Pharmacokinetic assay in mice; type: in vivo, Balb/c mice; details: mouse; for F: PO 10mpk vs IV 2mpk; for AUC(0-inf) / AUC(0-t) / C0 / MRT inf / Vd / Cmax / Tmax: plasma; for MRT inf: read-out: MRT(0-∞); for Vd: read-out: Vz
Outline: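 Male Balb/c mice (6–8 weeks) were dosed 2 mg/kg IV by tail vein or 10 or 100 mg/kg by oral gavage, with the PO group fasted overnight. Orbital blood was taken from 0.083 (IV only) to 24 h for plasma. Cmax, Tmax, CL, Vss, AUC, t1/2 and bioavailability were derived from concentration–time data.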

[8] = PO 10mpk (IV reference 2mpk; 0.2mpk for I-7)
[9] = male, Balb/c, 10 mg/kg, PO 10mpk

Cn1ncc2c(N)nc3cc(F)c(C(=O)N4CCOC[C@@H]4c4ccc5c(c4)OC(F)(F)O5)cc3c21 [Example I-7]
EC50 [1]: 1160 nM | AUC(0-inf) ([2]; 0.2 mg/kg, IV 0.2mpk): 0.22 µM·h | AUC(0-t) ([2]; 0.2 mg/kg, IV 0.2mpk): 0.148 µM·h | C0 ([2]; 0.2 mg/kg, IV 0.2mpk): 176 nM | MRT inf ([2]; 0.2 mg/kg, IV 0.2mpk): 1.8 h | Vd ([2]; 0.2 mg/kg, IV 0.2mpk): 3.5 L/kg | AUC(0-inf) ([2]; 10 mg/kg, PO 10mpk): 9.6 µM·h | AUC(0-t) ([2]; 10 mg/kg, PO 10mpk): 6.58 µM·h | Cmax ([2]; 10 mg/kg, PO 10mpk): 781 nM | Tmax ([2]; 10 mg/kg, PO 10mpk): 4.3 h | MRT inf ([2]; 10 mg/kg, PO 10mpk): 9.9 h | CLz ([2]; IV 0.2mpk): 31.7 mL/min/kg | R_AUC(t/∞) ([2]; IV 0.2mpk): 67% | t1/2z ([2]; IV 0.2mpk): 1.3 h | R_AUC(t/∞) ([2]; PO 10mpk): 76.9% | t1/2z ([2]; PO 10mpk): 8.1 h | F [2, 8]: 89.1% | EC50 [3]: 6.6 nM | EC50 [4]: 1.2 nM | EC50 [5]: 34.7 nM | IC50 ([6]; human, microsomes, pH 7.4): > 10000 nM | CLz ([7]; IV 2mpk): 13 mL/min/kg | R_AUC(t/∞) ([7]; IV 2mpk): 95.1% | t1/2z ([7]; IV 2mpk): 1.9 h | R_AUC(t/∞) ([7]; PO 10mpk): 97.1% | t1/2z ([7]; PO 10mpk): 4.9 h | F [7]: 159.9% | AUC(0-inf) ([7]; 2 mg/kg, IV 2mpk): 4.89 µM·h | AUC(0-t) ([7]; 2 mg/kg, IV 2mpk): 4.65 µM·h | C0 ([7]; 2 mg/kg, IV 2mpk): 2620 nM | MRT inf ([7]; 2 mg/kg, IV 2mpk): 2.7 h | Vd ([7]; 2 mg/kg, IV 2mpk): 2.3 L/kg | AUC(0-inf) ([7]; 10 mg/kg, PO 10mpk): 39.1 µM·h | AUC(0-t) ([7]; 10 mg/kg, PO 10mpk): 38 µM·h | Cmax ([7]; 10 mg/kg, PO 10mpk): 5010 nM | Tmax ([7]; 10 mg/kg, PO 10mpk): 2 h | MRT inf ([7]; 10 mg/kg, PO 10mpk): 6.1 h

Cn1ncc2c(N)nc3cc(F)c(C(=O)N(Cc4ccc5c(c4)OC(F)(F)O5)C4CC4)cc3c21 [Example I-16]
EC50 [1]: 928 nM | AUC(0-inf) ([2]; SD, 2 mg/kg, IV 2mpk): 2.43 µM·h | AUC(0-t) ([2]; SD, 2 mg/kg, IV 2mpk): 2.15 µM·h | C0 ([2]; SD, 2 mg/kg, IV 2mpk): 1140 nM | MRT inf ([2]; SD, 2 mg/kg, IV 2mpk): 3.1 h | Vd ([2]; SD, 2 mg/kg, IV 2mpk): 5.6 L/kg | AUC(0-inf) ([2]; SD, 10 mg/kg, PO 10mpk): 13.2 µM·h | AUC(0-t) ([2]; SD, 10 mg/kg, PO 10mpk): 9.06 µM·h | Cmax ([2]; SD, 10 mg/kg, PO 10mpk): 808 nM | Tmax ([2]; SD, 10 mg/kg, PO 10mpk): 4.7 h | MRT inf ([2]; SD, 10 mg/kg, PO 10mpk): 13.2 h | CLz ([2]; IV 2mpk): 31.7 mL/min/kg | R_AUC(t/∞) ([2]; IV 2mpk): 88.8% | t1/2z ([2]; IV 2mpk): 2.3 h | R_AUC(t/∞) ([2]; PO 10mpk): 71.5% | t1/2z ([2]; PO 10mpk): 9.3 h | F [2, 8]: 84% | EC50 [3]: 3.8 nM | EC50 [4]: 0.8 nM | EC50 [5]: 24.6 nM | IC50 ([6]; human liver microsomes, 3A4, read-out: IC50): > 10000 nM | AUC(0-inf) ([7]; male, Balb/c, 2 mg/kg, IV 2mpk): 6.37 µM·h | AUC(0-t) ([7]; male, Balb/c, 2 mg/kg, IV 2mpk): 6.24 µM·h | C0 ([7]; male, Balb/c, 2 mg/kg, IV 2mpk): 1960 nM | MRT inf ([7]; male, Balb/c, 2 mg/kg, IV 2mpk): 4.9 h | Vd ([7]; male, Balb/c, 2 mg/kg, IV 2mpk): 4.3 L/kg | AUC(0-inf) [7, 9]: 34.5 µM·h | AUC(0-t) [7, 9]: 34.4 µM·h | Cmax [7, 9]: 4760 nM | Tmax [7, 9]: 1 h | MRT inf [7, 9]: 5.2 h | CLz ([7]; IV 2mpk): 12 mL/min/kg | R_AUC(t/∞) ([7]; IV 2mpk): 97.9% | t1/2z ([7]; IV 2mpk): 4.4 h | R_AUC(t/∞) ([7]; PO 10mpk): 99.6% | t1/2z ([7]; PO 10mpk): 3.1 h | F [7]: 108%

Cn1ncc2c(N)nc3cnc(C(=O)N4CCOC[C@@H]4c4ccc5c(c4)OC(F)(F)O5)cc3c21 [Example I-38]
EC50 [1]: 313 nM | AUC(0-t) ([2]; 2 mg/kg, IV 2mpk): 4 µM·h | AUC(0-t) ([2]; 100 mg/kg, PO 100mpk): 199 µM·h | Cmax ([2]; 100 mg/kg, PO 100mpk): 10200 nM | F ([2]; PO 100mpk vs IV 2 mpk): 99% | EC50 [3]: 7.4 nM | EC50 [4]: 1.7 nM | EC50 [5]: 53.7 nM | IC50 ([6]; human, microsomes, pH 7.4): > 10000 nM | AUC(0-t) ([7]; 2 mg/kg, IV 2mpk): 7.87 µM·h | AUC(0-t) ([7]; 100 mg/kg, PO 100mpk): 710 µM·h | Cmax ([7]; 100 mg/kg, PO 100mpk): 52100 nM
